# Measurements as given in ChEMBL document CHEMBL1130697, “C24 and C25 substituted marcfortine A derivatives” (Bioorg Med Chem Lett, 1998).
# Calls of active or inactive are those of the source. The rule behind the calls is not given here.
# Tested on: Gerbillinae
# Assay: Anthelmintic activity against immunosuppressed Mongolian gerblis(jirds) inoculated with Haemonchus contortus and Trichostrongylus colubriform;found to be active
# Assay type: functional
row,SMILES,Activity
1,C=C1COc2c(ccc3c2NC(=O)[C@@]32C[C@@]34CN5CCCC[C@]5(C[C@@H]3C2(C)C)C(=O)N4C)OC1(C)C,Active

# Tested on: Gerbillinae
# Assay: Anthelmintic activity against immunosuppressed Mongolian gerblis(jirds) inoculated with Haemonchus contortus and Trichostrongylus colubriform; not active
# Assay type: functional
row,SMILES,Activity
1,CN1C(=O)[C@@]23CCCCN2C[C@@]12C[C@@]1(C(=O)Nc4c1ccc(O)c4O)C(C)(C)[C@H]2C3,inactive
2,CN1C(=O)[C@@]23CCCCN2C[C@@]12C[C@@]1(C(=O)Nc4c1ccc1c4OCC(O)C(C)(C)O1)C(C)(C)[C@H]2C3 (stereo not given in full),inactive
3,CC1=COc2c(ccc3c2NC(=O)[C@@]32C[C@@]34CN5CCCC[C@]5(C[C@@H]3C2(C)C)C(=O)N4C)OC1(C)C,inactive
4,CN1C(=O)[C@@]23CCCCN2C[C@@]12C[C@@]1(C(=O)Nc4c1ccc1c4OCC(=O)C(C)(C)O1)C(C)(C)[C@H]2C3,inactive
5,C=C1COc2ccc3c(c2OC1)NC(=O)[C@@]31C[C@@]23CN4CCCC[C@]4(C[C@@H]2C1(C)C)C(=O)N3C,inactive
6,CN1C(=O)[C@@]23CCCCN2C[C@@]12C[C@@]1(C(=O)Nc4c1ccc1c4OCC4(CO4)C(C)(C)O1)C(C)(C)[C@H]2C3 (stereo not given in full),inactive
7,CN1C(=O)[C@@]23CCCCN2C[C@@]12C[C@@]1(C(=O)Nc4c1ccc1c4OC=CC(C)(C)O1)C(C)(C)[C@H]2C3,inactive
8,CN1C(=O)[C@]23C[C@@H]4C(C)(C)[C@@]5(C[C@@]41CN2CC[C@@]3(C)O)C(=O)Nc1c5ccc2c1OC=CC(C)(C)O2,inactive
9,CN1C(=O)[C@@]23CCCCN2C[C@@]12C[C@@]1(C(=O)Nc4c1ccc1c4OCC(C)(O)C(C)(C)O1)C(C)(C)[C@H]2C3 (stereo not given in full),inactive
